Results as given in US10329542B2, “HBV RNAse H purification and enzyme inhibitors” (Saint Louis University, priority 2012, dated 2019).

Tests used:
[1] = biological target: T1, HBV genotype D RNAseH (HRHPL) (Hepatitis B virus genotype D subtype ayw, UniProt P03156, INS679M); experiment: Oligonucleotide-directed RNAseH cleavage assay, HBV genotype D; assay type: biochemical; conditions: for Activity vs. HBV Biochemical vs. gtD: class by concentration giving inhibition (10, 20, 60 μM); for Residual activity at 10 uM, Genotype D: ± standard deviation, 3 to 7 replicates
T1 construct: HRHPL contains HBV genotype D (Genbank V01460) polymerase residues 684-845; made in house; host or cells: E. coli BL21 codon+
Method: (§1) For the oligonucleotide-directed RNAseH cleavage assay (Gong et al., 2001), 6 μl protein extract (typical protein concentration 2.8 mg/ml) was mixed with 0.5 μg internally ^32P-labeled DRF+ RNA (nucleotides 2401-2605 of the duck HBV genome plus 60 nucleotides of flanking sequences from pBluescript) and 3 μg oligonucleotide D2507- or its corresponding negative control D2526+ on ice in 20 μl under the conditions in Table 1. Some reactions in FIG. 5 employed oligonucleotide D2543M-Sal or its D2453+ negative control as indicated. The reactions were incubated at 42° C. for 90 min. and terminated by addition of Laemmli protein loading buffer and boiling. The samples were resolved by 12% SDS-PAGE, the gels were stained with Coomassie blue to monitor protein loading, and labeled RNA was detected by autoradiography. Candidate inhibitors were dissolved in DMSO and added at the indicated concentrations during assembly of the reactions. Control reactions lacking the compounds contained DMSO as a vehicle control. The RNAseH autoradiograms were scanned and quantified with ImageJ.
(§2) Oligonucleotide-directed RNAseH cleavage assays (Gong et al., 2001) were performed as described (Tavis et al., 2013). Briefly, HBV RNAseH extracts were mixed with a 264 nt-long internally ^32P-labeled RNA plus an excess of a complementary DNA oligonucleotide or its inverse-complement as a negative control in a final concentration of 65 mM Tris pH 8.0, 190 mM NaCl, 5 mM MgCl2, 5 mM dTT, 0.05% NP40, and 6% glycerol. βTJ was dissolved in DMSO and added at the indicated concentrations; the final concentration of DMSO in all reactions was 1%. The reactions were incubated at 42° C. for 90 min. and terminated by addition of Laemmli protein electrophoresis buffer. The samples were resolved by SDS-PAGE, labeled RNA was detected by autoradiography, the autoradiograms were scanned, and the RNA cleavage products were quantified with ImageJ (National Institutes of Health). IC50 values were calculated by non-linear regression using GraphPad Prism (GraphPad Software, Inc.).

HBV genotype C RNAseH = experiment: Oligonucleotide-directed RNAseH cleavage assay, HBV genotype C; assay type: biochemical, Hepatitis B virus; conditions: class by concentration giving inhibition (10, 20, 60 μM)
Method: as §1, with “ImageJ. The oligonucleotides were: D2526+([…]; SEQ ID NO:8), D2507-([…]; SEQ ID NO:9), D2453+([…]; SEQ ID NO:10), and D2543M-Sal ([…]; SEQ ID NO:11).” for “ImageJ.”
Incremental improvements were developed in extraction of the HBV RNAseH from the bacterial cell pellets since the data were generated for Examples 1 and 2. Key among these was shifting from using a cup sonicator to a probe sonicator and reducing the duration of the sonication period from 3×60 second bursts to 3×20 second bursts. When the […] genotype C clone that had inconsistent activity under the old extraction conditions (FIG. 6C) was isolated under these conditions, it became consistently and robustly active (FIG. 16).

HBV genotype H RNAseH = experiment: Oligonucleotide-directed RNAseH cleavage assay, HBV genotype H; assay type: biochemical, Hepatitis B virus; conditions: 10 μM; ± standard deviation, 3 to 7 replicates
Method: as §1, with “ImageJ. The oligonucleotides were: D2526+([…]; SEQ ID NO:8), D2507-([…]; SEQ ID NO:9), D2453+([…]; SEQ ID NO:10), and D2543M-Sal ([…]; SEQ ID NO:11).” for “ImageJ.”
as §2

[2] = biological target: T2, chimeric HBV:HIV RNAseH HHC1 (Hepatitis B virus genotype D subtype ayw, UniProt P03156, DELINS787-795[…]/INS679M); experiment: Oligonucleotide-directed RNAseH cleavage assay, chimeric HHC1; assay type: biochemical; conditions: 10 μM; ± standard deviation, 3 to 7 replicates
T2 construct: HHC1 is an HRHPL derivative; made in house; host or cells: E. coli BL21 codon+
Excerpt: pCMV-HBV-LE-(CMV-HBV) is an HBV over-length genomic expression vector containing 1.2 copies of the HBV(adw2) genome (Genbank X02763.1) downstream of the CMV promoter cloned into pBS (Promega). Surface protein expression from this vector is ablated by mutating the preS and S open reading frames. pCMV-HBV(genotype D) is an analogous HBV genomic expression construct and was a gift from Dr. Shuping Tong (Brown University). For bacterial expression, codon-optimized cDNA sequences for HRHPL (genotypes A, B, C, D, and H), and noncodon-optimized sequences for HHC1 and HHC2 were cloned by gene synthesis (Genscript) between the NcoI and EcoRI sites into pTrcHis2B (Invitrogen) with a C-terminal hexahistidine tag. HRHPL contains HBV genotype D (Genbank V01460) polymerase residues 684-845. HHC1 is an HRHPL derivative in which HBV polymerase residues 800-808 were replaced with HIV residues corresponding to the RNAseH helix D ([…]; SEQ ID NO:6). HHC2 is an HRHPL derivative in which HBV polymerase residues 800-845 were replaced with HIV residues corresponding to the RNAseH helix D to the C-terminus ([…]; SEQ ID NO:7). The human RNAseH1 gene (NP_002927.2) was cloned with an N-terminal hexahistidine-tag between the BamHI and XhoI sites of pRsetB (Invitrogen) by gene synthesis.
as §1, with “ImageJ. The oligonucleotides were: D2526+([…]; SEQ ID NO:8), D2507-([…]; SEQ ID NO:9), D2453+([…]; SEQ ID NO:10), and D2543M-Sal ([…]; SEQ ID NO:11).” for “ImageJ.”

human RNAseH1 = biological target: T3, human RNAseH1 (Homo sapiens, UniProt O60930); experiment: Oligonucleotide-directed RNAseH assay, recombinant human RNAseH1; assay type: biochemical; conditions: class by concentration giving inhibition (10, 20, 60 μM)
T3 construct: hexahistidine (N); made in house; host or cells: E. coli BL21 codon+
T3 sequence (O60930 1-286): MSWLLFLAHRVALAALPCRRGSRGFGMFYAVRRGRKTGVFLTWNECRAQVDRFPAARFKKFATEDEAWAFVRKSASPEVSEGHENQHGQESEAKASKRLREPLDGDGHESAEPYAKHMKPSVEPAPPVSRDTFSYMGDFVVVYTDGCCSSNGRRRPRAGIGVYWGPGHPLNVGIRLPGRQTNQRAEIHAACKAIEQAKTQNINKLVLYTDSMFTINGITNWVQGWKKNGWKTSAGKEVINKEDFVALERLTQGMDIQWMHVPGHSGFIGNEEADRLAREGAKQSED
Method: as §1, with “ImageJ. The oligonucleotides were: D2526+([…]; SEQ ID NO:8), D2507-([…]; SEQ ID NO:9), D2453+([…]; SEQ ID NO:10), and D2543M-Sal ([…]; SEQ ID NO:11).” for “ImageJ.”
Therefore, the inventors cloned the human RNAseH1 with an N-terminal hexahistidine tag, expressed it in E. coli, and purified the protein by nickel affinity chromatography. […] This enzyme was active in the oligonucleotide-directed and fluorescent RNAseH assays (FIG. 10B and data not shown). To determine how inhibition of human RNAseH1 compared to inhibition of the HBV RNAseH, the inventor titrated the RNAaseH1 enzyme to yield similar levels of activity as the HBV enzyme, and then the inventor directly compared the ability of compounds #8-12 to inhibit human RNAseH1 and HRHPL at 10 μM. […] Therefore, it is possible to inhibit the HBV RNAseH without inhibiting human RNAseH1.
as §2

HBV [3] = experiment: HBV genomic replication assays (Table 2); assay type: cell-based, Hepatitis B virus; conditions: class by active concentration
Method: Huh7 cells were maintained in Dulbecco's modified Eagle's medium with 10% fetal bovine serum at 37° C. in 5% CO2. Cells were seeded into 60 mm dishes and transfected at 70% confluency with 2.6 μg of plasmids using TransIT-LT1 (Mirus, Inc.). Test compounds were added the morning following transfection at 10 or 50 μM, and fresh medium containing the compounds was provided every 1-2 days. Four or five days post-transfection HBV cores were isolated by lysis of the cells in 10 mM Tris pH 7.5, 1 mM EDTA, 0.25% NP40, 50 mM NaCl, and 8% sucrose followed by sedimentation through a 30% sucrose cushion as described (Travis, et al., 1998). Viral DNAs were isolated from cytoplasmic core particle preparations by proteinase K digestion followed by phenol/chloroform extraction as described (Gong et al., 2001). Duplicate aliquots of the nucleic acids were treated with 2 U E. coli DNAse-free RNAseH (Invitrogen) at 37° C. for 30 min. or were mock treated. The nucleic acid samples were resolved by electrophoresis on 1.2% agarose gels and detected by Southern blotting with ^32P-labeled HBV DNA as a probe. […]

HBV [4] = experiment: Quantitative PCR screen of HBV plus-polarity DNA accumulation; assay type: cell-based, Hepatitis B virus; conditions: 60, 20, or 6.7 μM; DNA isolated day 3
Method: This assay was employed to screen 7 compounds for their ability to suppress HBV replication (FIG. 17). […] Fresh medium containing compound was provided on days 1 and 2, and capsid-associated HBV DNAs were isolated on day 3. HBV plus-strand DNAs were measured using the cross-gap TaqMan PCR assay.
Plus-polarity preferential quantitative TaqMan PCR for the HBV DNA was conducted employing forward primer […] […] PCR was conducted on purified HBV capsid-derived nucleic acids for 40 cycles of 95° C. for 15 sec. and 65° C. for 1 min. employing the TaqMan universal PCR master mix (Applied Biosystems). Results were standardized against serial dilutions of cloned HBV DNA. The EC50 was estimated by linear regression of the real-time PCR data.

T1 sequence (P03156 680-832, added parts left off, stated change not applied): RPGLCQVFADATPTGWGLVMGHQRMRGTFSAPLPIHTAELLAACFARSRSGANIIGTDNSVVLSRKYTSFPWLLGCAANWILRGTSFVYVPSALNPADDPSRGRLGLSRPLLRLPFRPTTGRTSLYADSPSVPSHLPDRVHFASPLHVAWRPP
T2 sequence (P03156 680-786, added parts left off, stated change not applied): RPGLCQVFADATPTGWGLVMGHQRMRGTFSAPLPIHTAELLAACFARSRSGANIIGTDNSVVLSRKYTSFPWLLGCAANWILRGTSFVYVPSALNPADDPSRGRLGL

Compound	Activity vs. HBV Biochemical vs. gtD [1]	Activity vs. HBV Biochemical vs. gtC (HBV genotype C RNAseH)	Residual activity at 10 uM, Genotype D [1] [Percent DMSO control]	Residual activity at 10 uM, Genotype H (HBV genotype H RNAseH) [Percent DMSO control]	Residual activity at 10 uM, HHC1 [2] [Percent DMSO control]	Activity vs. human RNAseH1 (human RNAseH1)	Activity vs. HBV Genomic Replication (HBV [3])	Suppression of HBV plus-polarity DNA accumulation (HBV [4])
Cc1cc(C)c(C#N)c(=O)[nH]1 [Compound 20]	− (− no inhibition at 60 μM)	− (− no inhibition at 60 μM)						
O=c1cc2oc3cc(O)c(O)cc3c(-c3ccccc3)c-2cc1O [Compound 31]	+++ (+++ inhibition at 10 μM)		26 ± 15	50 ± 10	42 ± 12	+++ (+++ inhibition at 10 μM)	− (− no activity at 60 μM)	
CN(C)c1ccc(-c2c3cc(O)c(=O)cc-3oc3cc(O)c(O)cc23)cc1 [Compound 35]	+++ (+++ inhibition at 10 μM)		27 ± 14	38 ± 20	39 ± 9	+++ (+++ inhibition at 10 μM)	− (− no activity at 60 μM)	
O=c1ccc2ccccc2n1O [Compound 43]	− (− no inhibition at 60 μM)	+ (+ inhibition at 60 μM)				− (− no inhibition at 60 μM)		
O=C1c2cccc3cccc(c23)C(=O)N1O [Compound 45]	− (− no inhibition at 60 μM)	+ (+ inhibition at 60 μM)				− (− no inhibition at 60 μM)	− (− no activity at 60 μM)	
CC(C)c1ccc(O)c(=O)cc1 [Compound 48]								did not suppress HBV plus-polarity DNA accumulation
CC(C)n1cc(C(=O)O)c(=O)c2ccccc21 [Compound 64]	+ (+ inhibition at 60 μM)	− (− no inhibition at 60 μM)						
CCn1cc(C(=O)O)c(=O)c2cc(Cc3ccccc3)c(OCCOC)cc21 [Compound 69]	++ (++ inhibition at 20 μM)	+ (+ inhibition at 60 μM)						
CCn1cc(C(=O)O)c(=O)c2cc(F)c(N3CCNCC3)nc21 [Compound 71, Enoxacin, reference compound]	− (− no inhibition at 60 μM)	− (− no inhibition at 60 μM)						
Cn1c(N2CCCCS2(=O)=O)nc(C(=O)NCc2ccc(F)cc2)c(O)c1=O [Compound 72, reference compound]	++ (++ inhibition at 20 μM)	+ (+ inhibition at 60 μM)						
C[C@@H]1CCO[C@H]2Cn3cc(C(=O)NCc4ccc(F)cc4F)c(=O)c(O)c3C(=O)N12 [Compound 73, Dolutegravir, reference compound]	+ (+ inhibition at 60 μM)	− (− no inhibition at 60 μM)						
